Reference: the kinase profiling compilation of Christmann-Franck et al. (2016)

Columns and labels:
Test in all cases: KINOMEscan competition binding
Details in all cases: compound 10.0 µM
[1] = molecular target: ACVR1B (human) (UniProt P36896)
[2] = molecular target: ADCK4 (human) (UniProt Q96D53)
[3] = molecular target: AURKA (human) (UniProt O14965)
[4] = molecular target: CDK16 (human) (UniProt Q00536)
[5] = molecular target: CDK7 (human) (UniProt P50613)
[6] = molecular target: CLK1 (human) (UniProt P49759)
[7] = molecular target: CLK3 (human) (UniProt P49761)
[8] = molecular target: CSNK1E (human) (UniProt P49674)
[9] = molecular target: DCLK1 (human) (UniProt O15075)
[10] = molecular target: DDR2 (human) (UniProt Q16832)
[11] = molecular target: EPHA2 (human) (UniProt P29317)
[12] = molecular target: EPHA3 (human) (UniProt P29320)
[13] = molecular target: EPHB1 (human) (UniProt P54762)
[14] = molecular target: ERBB2 (human) (UniProt P04626)
[15] = molecular target: FER (human) (UniProt P16591)
[16] = molecular target: FGFR2 (human) (UniProt P21802)
[17] = molecular target: FLT4 (human) (UniProt P35916)
[18] = test system: KIT (human), P10721 [V559D]
[19] = molecular target: MAP4K2 (human) (UniProt Q12851)
[20] = molecular target: MAPK7 (human) (UniProt Q13164)
[21] = molecular target: MAPK8 (human) (UniProt P45983)
[22] = molecular target: MKNK2 (human) (UniProt Q9HBH9)
[23] = molecular target: MST1R (human) (UniProt Q04912)
[24] = molecular target: MUSK (human) (UniProt O15146)
Chain of MUSK (human) (O15146 whole entry, looked up): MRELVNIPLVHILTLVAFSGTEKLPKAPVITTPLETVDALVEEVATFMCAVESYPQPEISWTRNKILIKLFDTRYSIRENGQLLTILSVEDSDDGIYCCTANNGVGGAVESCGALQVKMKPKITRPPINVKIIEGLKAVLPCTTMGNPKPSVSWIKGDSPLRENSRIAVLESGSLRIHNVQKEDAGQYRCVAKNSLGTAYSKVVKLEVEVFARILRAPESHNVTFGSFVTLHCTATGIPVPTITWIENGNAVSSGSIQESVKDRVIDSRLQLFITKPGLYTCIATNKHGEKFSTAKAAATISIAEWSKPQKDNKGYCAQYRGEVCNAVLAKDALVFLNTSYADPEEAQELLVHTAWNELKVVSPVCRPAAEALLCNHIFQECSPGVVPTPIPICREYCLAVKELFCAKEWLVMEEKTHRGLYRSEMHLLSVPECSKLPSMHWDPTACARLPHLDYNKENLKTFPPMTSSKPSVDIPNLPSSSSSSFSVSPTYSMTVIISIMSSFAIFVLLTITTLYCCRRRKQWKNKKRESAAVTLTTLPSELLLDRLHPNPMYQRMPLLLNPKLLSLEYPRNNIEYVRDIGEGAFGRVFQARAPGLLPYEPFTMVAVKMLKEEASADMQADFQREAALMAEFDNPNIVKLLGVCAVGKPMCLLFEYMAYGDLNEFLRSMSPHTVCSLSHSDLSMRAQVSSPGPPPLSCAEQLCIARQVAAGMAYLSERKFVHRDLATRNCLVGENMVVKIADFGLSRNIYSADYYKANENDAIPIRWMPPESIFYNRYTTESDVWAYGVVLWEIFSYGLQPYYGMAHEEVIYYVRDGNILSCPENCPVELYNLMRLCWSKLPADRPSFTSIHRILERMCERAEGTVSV

[25] = molecular target: PDPK1 (human) (UniProt O15530)
[26] = molecular target: PLK3 (human) (UniProt Q9H4B4)
[27] = molecular target: PRKAA2 (human) (UniProt P54646)
[28] = molecular target: PRKACB (human) (UniProt P22694)
[29] = molecular target: PRKD3 (human) (UniProt O94806)
Chain of PRKD3 (human) (O94806 whole entry, looked up): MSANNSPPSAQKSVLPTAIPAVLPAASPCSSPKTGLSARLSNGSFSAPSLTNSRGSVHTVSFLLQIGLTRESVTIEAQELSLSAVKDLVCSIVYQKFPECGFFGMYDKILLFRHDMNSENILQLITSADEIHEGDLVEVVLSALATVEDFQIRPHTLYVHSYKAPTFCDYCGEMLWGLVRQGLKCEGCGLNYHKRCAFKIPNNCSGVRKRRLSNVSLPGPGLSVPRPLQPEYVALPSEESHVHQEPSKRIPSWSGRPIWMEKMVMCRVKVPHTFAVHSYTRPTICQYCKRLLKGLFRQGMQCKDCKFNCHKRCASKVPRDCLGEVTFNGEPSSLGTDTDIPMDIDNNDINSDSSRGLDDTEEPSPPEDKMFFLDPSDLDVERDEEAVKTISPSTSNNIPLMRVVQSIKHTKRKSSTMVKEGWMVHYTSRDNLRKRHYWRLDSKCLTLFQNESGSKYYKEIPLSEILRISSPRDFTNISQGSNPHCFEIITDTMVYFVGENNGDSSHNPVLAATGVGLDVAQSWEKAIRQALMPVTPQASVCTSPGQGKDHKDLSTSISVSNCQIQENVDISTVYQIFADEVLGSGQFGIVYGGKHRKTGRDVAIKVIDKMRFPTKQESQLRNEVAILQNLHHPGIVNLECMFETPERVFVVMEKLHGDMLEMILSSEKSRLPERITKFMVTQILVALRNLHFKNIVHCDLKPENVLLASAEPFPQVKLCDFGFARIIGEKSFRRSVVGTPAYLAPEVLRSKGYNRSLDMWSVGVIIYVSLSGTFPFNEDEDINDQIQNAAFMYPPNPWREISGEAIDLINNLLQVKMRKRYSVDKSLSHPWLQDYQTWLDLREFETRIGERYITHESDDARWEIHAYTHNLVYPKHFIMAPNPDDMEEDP

[30] = molecular target: RPS6KA1 KD2 (human) (UniProt Q15418)
[31] = molecular target: RPS6KA2 KD2 (human) (UniProt Q15349)
Chain of RPS6KA2 KD2 (human) (Q15349 whole entry, looked up): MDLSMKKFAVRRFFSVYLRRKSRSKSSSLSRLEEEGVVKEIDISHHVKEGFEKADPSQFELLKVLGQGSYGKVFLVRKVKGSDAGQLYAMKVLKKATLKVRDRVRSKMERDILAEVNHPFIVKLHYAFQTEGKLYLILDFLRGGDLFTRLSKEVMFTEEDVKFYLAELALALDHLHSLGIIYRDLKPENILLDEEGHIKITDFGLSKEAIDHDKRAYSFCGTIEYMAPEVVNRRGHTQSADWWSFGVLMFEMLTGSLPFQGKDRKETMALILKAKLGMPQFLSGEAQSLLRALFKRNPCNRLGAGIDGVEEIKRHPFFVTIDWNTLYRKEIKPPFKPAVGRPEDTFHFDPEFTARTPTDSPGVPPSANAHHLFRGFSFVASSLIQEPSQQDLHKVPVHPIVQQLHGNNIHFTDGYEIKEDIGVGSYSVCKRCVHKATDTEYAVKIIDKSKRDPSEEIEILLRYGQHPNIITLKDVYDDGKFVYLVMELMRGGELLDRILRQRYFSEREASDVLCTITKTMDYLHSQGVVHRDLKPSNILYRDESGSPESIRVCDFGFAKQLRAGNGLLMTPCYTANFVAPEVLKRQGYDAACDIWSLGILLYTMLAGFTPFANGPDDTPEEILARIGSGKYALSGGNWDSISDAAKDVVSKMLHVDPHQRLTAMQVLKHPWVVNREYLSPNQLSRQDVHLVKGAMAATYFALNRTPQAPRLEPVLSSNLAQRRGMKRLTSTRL

[32] = molecular target: SGK110 (human) (UniProt P0C264)
[33] = molecular target: SIK2 (human) (UniProt Q9H0K1)
[34] = molecular target: STK16 (human) (UniProt O75716)
[35] = molecular target: STK17A (human) (UniProt Q9UEE5)
[36] = molecular target: TESK1 (human) (UniProt Q15569)
Chain of TESK1 (human) (Q15569 whole entry, looked up): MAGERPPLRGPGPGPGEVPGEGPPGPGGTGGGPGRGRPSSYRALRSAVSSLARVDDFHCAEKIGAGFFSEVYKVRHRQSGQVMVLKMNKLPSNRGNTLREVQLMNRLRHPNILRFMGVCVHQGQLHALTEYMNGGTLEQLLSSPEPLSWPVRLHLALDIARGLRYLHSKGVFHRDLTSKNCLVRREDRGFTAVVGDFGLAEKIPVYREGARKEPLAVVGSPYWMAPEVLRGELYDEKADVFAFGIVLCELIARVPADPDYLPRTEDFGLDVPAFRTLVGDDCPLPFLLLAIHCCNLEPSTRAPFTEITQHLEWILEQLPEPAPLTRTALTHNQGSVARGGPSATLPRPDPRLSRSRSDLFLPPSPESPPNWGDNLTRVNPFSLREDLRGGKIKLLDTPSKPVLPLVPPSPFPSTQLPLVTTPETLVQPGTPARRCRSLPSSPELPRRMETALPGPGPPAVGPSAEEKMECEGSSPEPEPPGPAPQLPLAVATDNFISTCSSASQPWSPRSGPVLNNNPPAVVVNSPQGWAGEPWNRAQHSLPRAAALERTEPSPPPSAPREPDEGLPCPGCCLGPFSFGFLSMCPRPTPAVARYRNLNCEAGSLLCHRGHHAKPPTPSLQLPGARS

[37] = molecular target: TNNI3K (human) (UniProt Q59H18)
Chain of TNNI3K (human) (Q59H18 whole entry, looked up): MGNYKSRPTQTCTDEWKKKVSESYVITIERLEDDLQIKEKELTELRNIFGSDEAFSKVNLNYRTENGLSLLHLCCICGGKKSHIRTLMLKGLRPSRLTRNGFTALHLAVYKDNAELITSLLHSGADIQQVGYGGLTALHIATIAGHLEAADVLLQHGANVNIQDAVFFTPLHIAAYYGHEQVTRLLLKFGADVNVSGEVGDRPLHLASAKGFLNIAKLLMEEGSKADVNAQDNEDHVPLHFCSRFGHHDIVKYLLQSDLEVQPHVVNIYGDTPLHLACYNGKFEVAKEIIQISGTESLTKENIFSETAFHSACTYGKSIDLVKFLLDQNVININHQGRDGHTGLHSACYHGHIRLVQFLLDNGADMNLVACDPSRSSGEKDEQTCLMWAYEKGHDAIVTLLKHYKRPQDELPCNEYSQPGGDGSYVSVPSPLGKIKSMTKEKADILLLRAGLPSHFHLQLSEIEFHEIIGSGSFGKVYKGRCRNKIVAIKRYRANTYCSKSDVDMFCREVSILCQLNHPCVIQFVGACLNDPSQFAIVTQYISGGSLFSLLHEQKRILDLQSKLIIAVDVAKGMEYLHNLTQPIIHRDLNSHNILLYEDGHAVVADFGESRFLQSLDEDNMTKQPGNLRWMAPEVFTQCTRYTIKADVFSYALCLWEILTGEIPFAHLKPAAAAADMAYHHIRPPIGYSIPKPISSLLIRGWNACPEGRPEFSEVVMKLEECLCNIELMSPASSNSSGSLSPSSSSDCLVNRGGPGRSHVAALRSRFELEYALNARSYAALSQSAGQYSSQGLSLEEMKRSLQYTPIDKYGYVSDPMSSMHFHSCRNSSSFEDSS

[38] = molecular target: ULK1 (human) (UniProt O75385)
[39] = molecular target: ULK2 (human) (UniProt Q8IYT8)
[40] = molecular target: WEE2 (human) (UniProt P0C1S8)

Chain of CDK16 (human) (Q00536 whole entry, looked up): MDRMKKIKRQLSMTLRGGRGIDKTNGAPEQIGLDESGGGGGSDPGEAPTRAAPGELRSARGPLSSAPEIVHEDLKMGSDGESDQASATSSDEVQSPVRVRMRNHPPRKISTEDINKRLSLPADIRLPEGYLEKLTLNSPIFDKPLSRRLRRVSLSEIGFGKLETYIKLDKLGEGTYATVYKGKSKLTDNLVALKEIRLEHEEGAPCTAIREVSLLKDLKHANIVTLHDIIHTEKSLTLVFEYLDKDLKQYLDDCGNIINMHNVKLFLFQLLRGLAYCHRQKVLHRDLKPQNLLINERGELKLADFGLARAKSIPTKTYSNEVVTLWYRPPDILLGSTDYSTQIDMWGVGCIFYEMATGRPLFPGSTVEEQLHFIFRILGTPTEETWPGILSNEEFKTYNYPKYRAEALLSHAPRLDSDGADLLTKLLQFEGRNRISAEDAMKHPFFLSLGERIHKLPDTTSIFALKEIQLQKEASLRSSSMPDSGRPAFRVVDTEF
Chain of ADCK4 (human) (Q96D53 whole entry, looked up): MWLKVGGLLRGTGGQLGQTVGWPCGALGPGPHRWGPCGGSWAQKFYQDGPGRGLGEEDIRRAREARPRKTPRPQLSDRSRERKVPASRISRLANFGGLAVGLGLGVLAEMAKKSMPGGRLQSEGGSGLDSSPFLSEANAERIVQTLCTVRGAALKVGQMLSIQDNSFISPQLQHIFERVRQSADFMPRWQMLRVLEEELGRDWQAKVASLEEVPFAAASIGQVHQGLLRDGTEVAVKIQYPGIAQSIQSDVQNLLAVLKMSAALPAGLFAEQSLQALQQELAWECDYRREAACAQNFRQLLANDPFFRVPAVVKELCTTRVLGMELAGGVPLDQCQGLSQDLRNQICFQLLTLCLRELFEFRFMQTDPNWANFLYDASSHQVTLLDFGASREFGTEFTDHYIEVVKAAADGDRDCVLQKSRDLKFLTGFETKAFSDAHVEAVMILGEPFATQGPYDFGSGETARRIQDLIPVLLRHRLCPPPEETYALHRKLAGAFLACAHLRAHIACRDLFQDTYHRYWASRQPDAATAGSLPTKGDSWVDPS

In the case of `Cc1ccc(C(=O)Nc2cccc(C(F)(F)F)c2)cc1Nc1cncc(C(N)=O)c1`, the kinase still bound, per cent of control [1] is reported as 100%, the kinase still bound, per cent of control [2] is reported as 100% and the kinase still bound, per cent of control [3] is reported as 100%. It also gave a kinase still bound, per cent of control [4] of 100%, a kinase still bound, per cent of control [5] of 100% and a kinase still bound, per cent of control [6] of 100%. It also gave a kinase still bound, per cent of control [7] of 100%, a kinase still bound, per cent of control [8] of 100% and a kinase still bound, per cent of control [9] of 100%. The kinase still bound, per cent of control [10] was 0%, the kinase still bound, per cent of control [11] was 2.2% and the kinase still bound, per cent of control [12] was 8.8%. It also gave a kinase still bound, per cent of control [13] of 1.8%, a kinase still bound, per cent of control [14] of 100% and a kinase still bound, per cent of control [15] of 100%. For the same molecule, the kinase still bound, per cent of control [16] was 100%, the kinase still bound, per cent of control [17] was 100% and the kinase still bound, per cent of control [18] was 0%. The kinase still bound, per cent of control [19] was 100%, the kinase still bound, per cent of control [20] was 100% and the kinase still bound, per cent of control [21] was 100%. It also gave a kinase still bound, per cent of control [22] of 100%, a kinase still bound, per cent of control [23] of 100% and a kinase still bound, per cent of control [24] of 100%. For the same molecule, the kinase still bound, per cent of control [25] was 100%, the kinase still bound, per cent of control [26] was 100% and the kinase still bound, per cent of control [27] was 100%. The kinase still bound, per cent of control [28] was 100%, the kinase still bound, per cent of control [29] was 100% and the kinase still bound, per cent of control [30] was 100%. It also gave a kinase still bound, per cent of control [31] of 100%, a kinase still bound, per cent of control [32] of 100% and a kinase still bound, per cent of control [33] of 100%. For the same molecule, the kinase still bound, per cent of control [34] was 100%, the kinase still bound, per cent of control [35] was 100% and the kinase still bound, per cent of control [36] was 100%. For the same molecule, the kinase still bound, per cent of control [37] was 12%, the kinase still bound, per cent of control [38] was 100% and the kinase still bound, per cent of control [39] was 100%. The kinase still bound, per cent of control [40] was 100%.
Work on `OCCCNc1cc(-c2ccnc(Nc3cccc(Cl)c3)n2)ccn1` yielded a kinase still bound, per cent of control [1] of 100%, a kinase still bound, per cent of control [2] of 100% and a kinase still bound, per cent of control [3] of 100%. For the same molecule, the kinase still bound, per cent of control [4] was 1.9%, the kinase still bound, per cent of control [5] was 100% and the kinase still bound, per cent of control [6] was 2.2%. The kinase still bound, per cent of control [7] was 100%, the kinase still bound, per cent of control [8] was 100% and the kinase still bound, per cent of control [9] was 100%. It also gave a kinase still bound, per cent of control [10] of 100%, a kinase still bound, per cent of control [11] of 100% and a kinase still bound, per cent of control [12] of 100%. It also gave a kinase still bound, per cent of control [13] of 100%, a kinase still bound, per cent of control [14] of 100% and a kinase still bound, per cent of control [15] of 100%. For the same molecule, the kinase still bound, per cent of control [16] was 100%, the kinase still bound, per cent of control [17] was 100% and the kinase still bound, per cent of control [18] was 100%. The kinase still bound, per cent of control [19] was 100%, the kinase still bound, per cent of control [20] was 100% and the kinase still bound, per cent of control [21] was 100%. For the same molecule, the kinase still bound, per cent of control [22] was 100%, the kinase still bound, per cent of control [23] was 100% and the kinase still bound, per cent of control [24] was 100%. The kinase still bound, per cent of control [25] was 100%, the kinase still bound, per cent of control [26] was 100% and the kinase still bound, per cent of control [27] was 100%. For the same molecule, the kinase still bound, per cent of control [28] was 100%, the kinase still bound, per cent of control [29] was 100% and the kinase still bound, per cent of control [30] was 100%. It also gave a kinase still bound, per cent of control [31] of 100%, a kinase still bound, per cent of control [32] of 100% and a kinase still bound, per cent of control [33] of 100%. The kinase still bound, per cent of control [34] was 100%, the kinase still bound, per cent of control [35] was 100% and the kinase still bound, per cent of control [36] was 100%. It also gave a kinase still bound, per cent of control [37] of 100%, a kinase still bound, per cent of control [38] of 100% and a kinase still bound, per cent of control [39] of 100%. For the same molecule, the kinase still bound, per cent of control [40] was 100%.
